Experimental data taken from the METLIN SMRT retention time set (Domingo-Almenara et al. 2019).

Experiment: gradient 5% acetonitrile 3 min, to 50% in 2 min, to 85% in 15 min, held 3 min, 100 µL/min
Conditions: column: Zorbax Extend-C18 2.1 x 50 mm; eluents: water / acetonitrile, 0.1% formic acid
How it was run: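 Data were gathered over 3 months by HPLC coupled to a quadrupole time-of-flight mass spectrometer, operated in positive and negative ionization mode. Mixtures of ~100 pure standards ran on a Zorbax Extend-C18 column (2.1 × 50 mm, 1.8 μm) at 100 μL/min, with water and acetonitrile each containing 0.1% formic acid and dead and dwell volumes of 40 μL and 900 μL. Retention time was read from adduct peaks picked by computer and checked manually.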

SMILES | RP-LC retention time [s]
Cc1ccc(S(=O)(=O)N2CCC(n3cnc4c(C)cccc4c3=O)CC2)c(C)c1 | 1060
O=S(=O)(c1ccc2c(c1)CCC2)N1CCc2nc(-c3ccc(F)cc3)ncc2C1 | 1220
CCCCNc1c(C(=O)OC)c(=O)[nH]c2ccc(F)cc12 | 734
CN(C)CCNc1nc(-c2ccc(C(C)(C)C)cc2)nc2ccccc12 | 590
Cc1cc(=O)n(CC(=O)Nc2ccc(Br)cc2)c(N)n1 | 609
Cn1ncc2c(N3CCSCC3)nc(C(=O)Nc3cccc(OC(F)(F)F)c3)nc21 | 1010
O=C(COc1cccc(Cl)c1)N1CCN(c2nc(CN3CCCCC3)cs2)CC1 | 681
CN(C)S(=O)(=O)N1CCCC(c2nc(-c3ccccc3)no2)CCNC(=O)CC1 (configuration not stated) | 782
CCCCOc1ccc(S(=O)(=O)Nc2ccc(-c3cn4ccc(C)nc4n3)cc2)cc1 | 776
Cc1ccc(Nc2c(-c3nc(C)no3)cnc3nc(C)ccc23)c(C)c1 | 825
CCCN(C)C(=O)c1c(C)oc2c1CN(C(=O)COC)CC2 | 613
Cc1cc(NC(=O)c2[nH]c(C)c(S(=O)(=O)N3CCCCC3)c2C)ccc1Br | 1110
CCc1nn2c(CNS(=O)(=O)c3ccccc3F)c(-c3ccccc3)nc2s1 | 907
COc1ccc(-c2noc(Cc3nnc(-c4ccc(OC)cc4)o3)n2)cc1 | 949
O=C(C1CCCCC1)N1CCCC(c2n[nH]c(C3CC3)n2)C1 (configuration not stated) | 584
COc1ccc(OC)c(CNC(=O)COc2ccc(NC(=O)C3CC3)cn2)c1 | 712
CC1CC(=O)c2cnc(N3CCN(c4ccc(F)cc4)CC3)nc2C1 (configuration not stated) | 1080
CCCN1CCN(C(=O)c2cn3ccnc(-c4ccccc4)c3n2)CC1 | 706
COc1ccc(-c2cn3c(CC(=O)NCc4cc(OC)c(OC)c(OC)c4)csc3n2)cc1OC | 652
CC1CC(=O)c2cnc(N3CCN(C)CC3)nc2C1 (configuration not stated) | 564
COC(=O)c1cc(OCC(=O)Nc2ccc(OC)c(Cl)c2)c2ccccc2n1 | 812
Cc1cccc(NC(=O)N2CCC3(CC2)NC(=O)c2ccccc2O3)c1 | 723
CC(C(=O)N1CCCC1)C1CCN(C(=O)c2ccc3nc(-c4ccccc4)oc3c2)CC1 (configuration not stated) | 818

SMILES | RP-LC retention time [s]
CC(C)CCNC(=O)c1ccc2nc(CCc3ccc(NC(=O)C(C)C)cc3)[nH]c2c1 | 676
COc1ccccc1C(=O)Nc1nc(-c2ccc3c(c2)N(C)C(=O)CO3)cs1 | 969
CCCn1cc(-c2nc(-c3cccnc3)no2)c(=O)c2cc(F)ccc21 | 770
CN1C(=O)c2cccn2CC1C(=O)Nc1ccc(F)cc1 (configuration not stated) | 677
COc1ccc(CNS(=O)(=O)c2c(C)nn(-c3ccc(-c4ccc(C)cc4)nn3)c2C)cc1 | 1070
Cc1ccc(C(=O)N2CCCC2c2c(C)noc2C)cc1 (configuration not stated) | 760
Cc1oc(-c2[nH]ncc2C(=O)N2CCCC2)cc1S(=O)(=O)NCc1cccnc1 | 574
COc1ccc(-c2noc(C3(NC(=O)c4ccco4)CCCCC3)n2)cc1 | 1000
CCOC(=O)c1c(S(=O)(=O)N2CCC(C(=O)NCc3ccco3)CC2)c(C)n(C)c1C | 740
CC(C)Cn1cc(CCNC(=O)c2ccccc2)c2cccnc21 | 770
CCCc1cc(N2CCN(C(=O)c3ccco3)CC2)nc2nnc(C)n12 | 868
O=C(CN1C(=O)COc2ccc(C(=O)N3CCCC3)cc21)N1CCc2ccccc2C1 | 721
O=C(Nc1ccc(Br)cc1)N(c1ccccc1)c1ccccc1 | 1040
O=C(NC1CCCCCC1)C1CCCN(S(=O)(=O)c2c[nH]c(C(=O)N3CCCC3)c2)C1 (configuration not stated) | 815
Cc1[nH]c(C(=O)N2CCCC(C(=O)NCCCc3ccccc3)C2)c(C)c1C(=O)OC(C)C (configuration not stated) | 892
CCC1CN2C=Nc3oc(C)c(C(=O)NCCc4ccccc4)c3C2=N1 (configuration not stated) | 666
CCOc1ccc(N2CCn3c2nn(Cc2ccc(C(=O)OC)o2)c(=O)c3=O)cc1 | 731
Cc1nc2cc(-c3noc(-c4ccc(F)cc4)n3)ccc2n(C(C)C)c1=O | 1200
Cc1ccc(NC(=O)CN2CCc3[nH]c4c(C)cc(F)cc4c(=O)c3C2)c(Cl)c1 | 665
Cc1cc2c(cc1S(=O)(=O)N1CCCC1C(=O)Nc1ccc(C(F)(F)F)cc1)OCC(=O)N2 (configuration not stated) | 873
CCOC(=O)N1CCc2c(sc(NC(=O)C3CCCN(S(C)(=O)=O)C3)c2C#N)C1 (configuration not stated) | 767
CS(=O)(=O)N1CCC(OC2CCN(C(=O)Nc3ccc(F)cc3)CC2)CC1 | 729
O=C(CN1C(=O)CC(c2ccco2)Sc2ccccc21)Nc1ccccc1C(F)(F)F (configuration not stated) | 899

SMILES | RP-LC retention time [s]
O=C(O)c1ccc2c(c1)n(Cc1ccc(F)cc1)c(=O)c1ccnn12 | 793
O=C(Cn1cccc1-c1nnc(C2CC2)o1)NCc1ccccc1Cl | 815
CC(C)CCSc1nnc2c(S(=O)(=O)N3CCOCC3)cccn12 | 810
Cc1nnc(CNC(=O)c2cc(-c3cccs3)[nH]n2)o1 | 582
CCCN(CC1CCOC1)S(=O)(=O)c1ccccc1CC (configuration not stated) | 992
CCOc1ccc(NC(=O)N2CCCC(C)(C(=O)NCc3ccccc3C)C2)cc1 (configuration not stated) | 855
CC(C)CCNC(=O)CCCn1c2ccccc2c2cnn(C)c(=O)c21 | 865
O=C(CC1CCN(C(=O)Nc2ccccc2)CC1)N1CCN(c2ccccn2)CC1 | 603
Cc1sc(NC(=O)COc2ccc(Cl)cc2)nc1-c1ccc2c(c1)NC(=O)C(C)O2 (configuration not stated) | 1020
O=C(CN1CC=C(c2cnn(-c3ccccc3)c2)CC1)NCC1CCCO1 (configuration not stated) | 612
COc1ccc(Cl)cc1NC(=O)CSc1ccc(-n2ccnc2)nn1 | 613
O=C(Nc1ccc(F)cc1)C1CCCN(S(=O)(=O)Cc2ccc(F)cc2)C1 (configuration not stated) | 933
CCc1c(C(=O)O)nnn1-c1cc(OC)cc(OC)c1 | 730
Cc1cc(C)n(C(=O)c2ccc(Cl)cc2[N+](=O)[O-])n1 | 927
Cc1ccc(Nc2c(-c3cccc(Cl)c3)nc3ccccn23)cc1 | 780
COc1ccccc1N1CCN(c2cc(SCC(=O)NCc3ccco3)ncn2)CC1 | 777
COc1cc(NC(=O)NCCc2nc3cccnc3n2C2CCCCC2)cc(OC)c1 | 751
CCC1Oc2ccc(S(=O)(=O)N3CCC(C(=O)NCc4ccc(F)cc4)CC3)cc2NC1=O (configuration not stated) | 922
Cc1cnc(C(=O)NC2C[C@H]3CC[C@@H](C2)N3C(=O)c2ccc(C)s2)cn1 (some centres not stated) | 683
COc1ccc(NC(=O)Cn2nc3cc(C)nc(Nc4ccc(C)c(F)c4)n3c2=O)cc1 | 1040
Cc1cc(OCC(=O)N2CCCC2)nc(-c2ccc(Cl)cc2)n1 | 937
